Test results: patent US20230257423A1, “COMPOSITIONS FOR TREATING EPITHELIAL BARRIER FUNCTION DISORDERS” (ENTEROME, priority 2020, published 2023)

What was measured:
[1] = system: Monocyte-derived Dendritic Cells; assay: AlphaLISA IL10 secretion by dendritic cells; format: cell-based, human; conditions: for IL-10 secretion from DCs in co-stimulation with TLR activators: LPS 100 ng/ml or FIMH 10 μg/ml, mean of 3 MoDC donors, FIG. 9
Procedure: Dendritic Cells (DCs) were prepared from PBMC (Buffy Coat) and differentiated with GM-CSF (D 1:10000; =5 μl/50 ml) and IL-4 (D 1:5000; =10 μl/50 ml).
In this test, 30,000 cells/well were seeded in complete IMDM media (2 mM L-glutamine, 50 IU/mL penicillin, […] streptomycin, 10 mM Hepes and 10% heat-inactivated foetal calf serum) in 96 wells plates 24h before activation (and kept in a humidified 5% CO2 atmosphere at 37° C.). Pre-purified, or HPLC-eluted, fractions as well as EB7020 chemically synthetized and various controls were added to reporter cells at 10% vol/vol to a final volume of 100 μl.
AlphaLisa (Perkin Elmer) was realized on supernatant according the supplier protocol (for complete references: AlphaLISA® Research Reagents Human Interleukin 10 (IL10) Kit Product No.: AL218 C/F sold by PerkinElmer).

[2] = system: PBMC derived DCs; assay: Array (transcriptomics) on PBMC derived DCs; format: cell-based, human; set-up: SLC39A14 gene expression / IL6 gene expression / CCL1 gene expression / CCL8 gene expression / TNF-α gene expression: unit not given here; conditions: 3 donors, 6h, TNF-α 10 ng/ml, PHA 3 μg/ml, LPS 3 ng/ml, PAM3CSK4 10 ng/ml, MDP 5 μg/ml
Procedure: DCs from three different donors were seeded at 1.0×10^5 DCs/well in a 48 well plate in 0.5 ml of complete IMDM. The effect of the active fractions of the F4 clone was compared to the same fractions purified from the negative control (pBAD-fractions). TNF-α (10 ng/ml), PHA (3 μg/ml), LPS (3 ng/ml), PAM3CSK4 (10 ng/ml), and MDP 5 μg/ml were used as control.
Data were generated and analyzed using Spotfire software.
Transcriptomics was carried out on PBMC derived DCs from 3 donors.
DCs were stimulated (6h) with: • TNFα, PHA, LPS, PAM3CSK4, MDP=Positive control • F13, F25=HPLC fractions obtained from the complemented and functional F4D5-MsbA1-A2 clone • F4D5-pBAD-F13, F4D5-pBAD-F25=HPLC fractions obtained from the F4D5-pBADclone (negative control)
Data analysis was realised using TIBCO Spotfire software. The F4 fractions (from both positive and negative clones) were analysed individually and compared to known agonists (TNFα, PHA, LPS, PAM3CSK4, MDP).

Row | Molecule | IL-10 secretion from DCs in co-stimulation with TLR activators [1] | IL-10 secretion from human DCs ([1]; chemically synthesized compound, in presence of LPS, FIG. 8) | CCL1 gene expression [2] | CCL8 gene expression [2] | IL6 gene expression [2] | PERP gene expression [2] | PMP22 gene expression [2] | SLC39A14 gene expression [2] | TNF-α gene expression [2]
1 | CC(=O)NC1C(OP(=O)(O)O)OC(CO)C(O)C1OC(C)C(=O)NC(C)C(=O)NC(CCC(=O)NC(CCCC(N)C(=O)O)C(=O)O)C(=O)O (stereo not shown) [EB7020, M-Tri-DAP monophosphate] | Synergy | IL-10 secretion is induced |  |  |  |  |  |  | 
2 | CC(=O)N[C@H]1[C@@H](OP(=O)(O)OP(=O)(O)OC[C@H]2O[C@@H](n3ccc(=O)[nH]c3=O)[C@H](O)[C@@H]2O)O[C@H](CO)[C@@H](O)[C@@H]1O[C@H](C)C(=O)N[C@@H](C)C(=O)N[C@H](CCC(=O)N[C@@H](CCC[C@@H](N)C(=O)O)C(=O)O)C(=O)O [EB7021, UDP-M-Tri-DAP] | Synergy |  |  |  |  |  |  |  | 
3 | CC(=O)NC1C(OP(=O)(O)OP(=O)(O)OC[C@H]2O[C@@H](n3ccc(=O)[nH]c3=O)C(O)C2O)OC(CO)C(O)C1OC(C)C(=O)NC(C)C(=O)NC(CCC(=O)NC(CCCC(N)C(=O)O)C(=O)NC(C)C(=O)O)C(=O)O (stereo partly shown) [EB7022, UDP-M-Tetrapeptide] | Synergy |  |  |  |  |  |  |  | 
4 | CC(=O)N[C@@H]1[C@@H](O[C@H](C)C(=O)N[C@@H](C)C(=O)N[C@H](CCC(=O)O)C(N)=O)[C@H](O)[C@@H](CO)O[C@H]1O [MDP] |  |  | 3.1 | 4.1 | 9.4 | 1.6 | 1.0 | 0.9 | 3.5
5 | PAM3CSK4 |  |  | 30.6 | 64.8 | 718.1 | 2.6 | 1.0 | 1.6 | 28.4
6 | TNF-α |  |  | 4.2 | 11.2 | 32.9 | 1.0 | 0.8 | 1.2 | 5.6
